In the OPERA property sets (Mansouri et al. 2018):

| Structure (SMILES) | melting point [°C] | boiling point [°C] | log10 vapour pressure (mmHg) | further results |
| --- | --- | --- | --- | --- |
| C[C@@H](CN1CC(=O)NC(=O)C1)N1CC(=O)NC(=O)C1 | 238 | – | – | – |
| COC(=O)/C=C/C(C)=C\C=C\C(C)=C\C=C\C=C(C)\C=C\C=C(C)\C=C\C(=O)O | 198 | – | – | – |
| Brc1cccs1 | – | 150 | 1.37 | – |
| COC(=O)Nc1nc2ccc(C(=O)c3ccc(F)cc3)cc2[nH]1 | 260 | – | – | – |
| C=CCc1ccccc1C | – | 182 | – | – |
| C1CCCCNCCC1 | -19 | – | – | – |
| CCOC(=O)CCN(Cc1ccccc1)SN(C)C(=O)O/N=C(/C)SC | 47 | – | -7.46 | – |
| CC(C)Nc1ccc(NC(C)C)c2c1C(=O)c1ccccc1C2=O | – | – | – | ready biodegradability: not readily biodegradable |
| CC(C#N)CCC#N (stereo unspecified) | -45 | 263 | -2.29 | – |
| CC(C)(C#N)Nc1nc(Cl)nc(NC2CC2)n1 | 170 | – | – | – |
| Cc1ccccc1B(O)O | 166 | – | – | – |
| COc1cccc(Cl)n1 | – | 186 | – | – |
| CCOCCOCCOCCO | -18.7 | 256 | -2 | ready biodegradability: readily biodegradable |
| CC[Si](CC)(CC)CC | – | 155 | 0.699 | – |
| CCCC(O)CC(C)C (stereo unspecified) | -81 | 164 | – | – |
| c1ccc(-c2cnc(-c3ccccc3)o2)cc1 | 74 | 360 | – | – |
| FC(F)(F)C(F)(F)C(F)(F)C(F)(C(F)(F)F)C(F)(F)F | -119 | 57.6 | – | – |
| O=C1C(Cl)=CC(=NCl)C=C1Cl | 66 | – | – | – |
| CCN=Cc1ccccc1 | – | 196 | – | – |
| CCN(CC)C(=O)N1CCN(C)CC1 | 48 | – | – | – |
| Clc1ccc(-c2ccccc2)c(Cl)c1 | – | – | -2.86 | log10 Henry constant (atm·m³/mol): -3.55 |
| Cc1cnc(C(=O)O)c[n+]1[O-] | 178 | – | – | – |
| C=CCS | – | 65 | 2.72 | – |
| Cc1cc(O)cc(C)c1Cl | 115 | 246 | – | – |
| ClCC1CC1 | -90.9 | 88 | – | – |

| Structure (SMILES) | melting point [°C] | boiling point [°C] | log10 vapour pressure (mmHg) | further results |
| --- | --- | --- | --- | --- |
| CCCCCCCCCCCC[N+](C)(C)CCOc1ccccc1.[Br-] | 112 | – | – | – |
| CCOCC(=O)Cl | – | 125 | – | – |
| CCC(COC(=O)c1cc(OC)c(OC)c(OC)c1)(c1ccccc1)N(C)C (stereo unspecified) | 79 | – | – | – |
| OCCN(CCO)c1nc(N2CCCCC2)c2nc(N(CCO)CCO)nc(N3CCCCC3)c2n1 | 163 | – | – | – |
| COC(=O)C(Br)CBr (stereo unspecified) | – | 206 | – | – |
| Nc1ccc(O)cc1 | 188 | 284 | -4.4 | ready biodegradability: readily biodegradable |
| C=CCc1ccc(OC)c(OC)c1 | – | 263 | -1.92 | ready biodegradability: readily biodegradable |
| CC(C)C(Cl)Cl | – | 106 | 1.6 | – |
| Nc1nc2ccccc2[nH]1 | 230 | – | – | – |
| OCC1O[C@@H](Oc2ccccc2)[C@H](O)[C@@H](O)[C@H]1O (stereo partly specified) | 166 | – | – | – |
| O=C1c2ccccc2-c2ccc3c4c(ccc1c24)-c1ccccc1C3=O | 385 | – | – | log10 Koc (L/kg): 4.28 |
| O=COCC=Cc1ccccc1 | 0 | 252 | – | – |
| CC(=O)N(C(C)=O)c1ccccc1 | 37.5 | – | – | – |
| C=CC1CCCCC1 | – | 128 | – | – |
| CC(F)(Cl)Cl | -104 | 32 | 2.78 | – |
| Cl.NCC(F)(F)F | 195 | – | – | – |
| Clc1cc2c(oc3c(Cl)c(Cl)c(Cl)c(Cl)c32)c(Cl)c1Cl | 233 | – | -10.5 | log10 Koa: 11.2; log10 BCF (fish): 3.45; log10 biotransformation half-life (days) (fish): 0.9 |
| CCc1cc(C)ccc1C | -53.7 | 187 | -0.0272 | log10 biodegradation half-life (days): 0.477 |
| CC1CCCC(C(C)C)C1 (stereo unspecified) | – | 166 | – | – |
| BrCCCCCCCCBr | 15.5 | 271 | – | – |
| COC(=O)c1ccc(I)cc1 | 115 | – | – | – |
| CCOP(=S)(OCC)OC(Cl)C(Cl)(Cl)Cl (stereo unspecified) | – | – | -3.1 | log10 Koc (L/kg): 3.6 |
| CC(=O)CC(=O)Nc1ccc(Cl)cc1 | 132 | – | – | – |
| O=C(Nc1ccccc1)c1cc2ccccc2cc1O | 248 | – | – | ready biodegradability: not readily biodegradable; log10 BCF (fish): 0.81 |
| CCCCOC(=O)COc1ccc(Cl)cc1Cl | – | – | -4.21 | – |
